From patent publication EP0325936A2, “Aminoguanidine derivatives and inhibitory agents on maillard reaction containing them as active ingredients” (ONO PHARMACEUTICAL CO., LTD., priority 1988, dated 1989)

What follows are compounds tested on Maillard reaction (assay: Inhibitory effect on Maillard reaction in vitro (BSA + glucose incubation, fluorescence)). Conditions: 6mM test compound; 100 mg/ml bovine serum albumin (BSA), 200 mM glucose, 0.5 M phosphatic buffer solution (pH 7.38), incubated for a week at 37°C; fluorescence excitation 360nm, emission 450 nm.
Type: biochemical
Procedure: An inhibitory activity on Maillard reaction of the compounds of the present invention was confirmed by the screening system mentioned below.
In order to evaluate the inhibitory effect on Maillard reaction in vitro, of the compounds in the present invention, the measurement was carried out under conditions described below.
100 mg/ml bovine serum albumin (BSA), 200 mM glucose and 6mM test compound were dissolved in 0.5 M phosphatic buffer solution (pH 7.38), and the mixture was incubated for a week at 37°C.
After incubation, the incubated medium was diluted 100 times with the same phosphatic buffer solution, and the fluorescence spectrum was measured at the excitation maximum of 360nm and the emission maximum of 450 nm.
Inhibition percentage of the test compounds was calculated by the following equation: [formula] ΔI₁ : fluorescence of test compounds ΔI₂ : fluorescence of (test compounds + glucose), ΔI₃ : fluorescence of (test compounds + BSA), ΔI₄ : fluorescence of (test compounds + BSA + glucose), ΔI : fluorescence of (BSA + glucose)

`N=C(N)NNc1ccc(Cl)cc1.O=S(=O)(O)O` [1(b), 1-(4-chloroanilino) guanidine sulfate] and `N=C(N)NNc1ccc(F)cc1.O=S(=O)(O)O` [1(c), 1-(4-fluoroanilino) guanidine sulfate] are the same in “Inhibitory effect (%) (6mM)” value: 100% for the first, 100% for the second.

Going from `COc1ccc(NNC(=N)N)cc1.O=S(=O)(O)O` [1(d), 1-(4-methoxyanilino) guanidine sulfate] to `Cc1ccc(NNC(=N)N)cc1.O=S(=O)(O)O` [1(h), 1-(4-methylanilino) guanidine sulfate], the “Inhibitory effect (%) (6mM)” value falls from 100% to 83%.

First: N=C(N)NNc1cccc([N+](=O)[O-])c1.O=S(=O)(O)O [1(j), 1-(3-nitroanilino) guanidine sulfate]
Second: N=C(N)NNc1ccccc1.O=S(=O)(O)O [Example 1, 1-anilinoguanidine sulfate]
The “Inhibitory effect (%) (6mM)” value of the first is higher: 94% for the first, 79% for the second.

With `N=C(N)NNc1ccccc1Cl.O=S(=O)(O)O` [Example 1(a), 1-(2-chloroanilino) guanidine sulfate] the “Inhibitory effect (%) (6mM)” value was 79%.
